Test results: patent US20240067693A1, “POLYPEPTIDES AND USES THEREOF” (MEDIMMUNE LIMITED, priority 2020, published 2024)
Numbered stars: 1 amine (or outer) side, 2 acyl side, 3 side chain; on linkers, the order of the positions; unused ones are H or OH. Bridge positions count the residues as written; N and C are the ends. Square brackets hold non-standard residues; d marks the D form. Side chains are listed from the residue outwards. Peptide text beside a SMILES is read from it. * marks the point of attachment. C18 diacid = O=C(O)CCCCCCCCCCCCCCCCC(=O)*; γGlu = O=C(O)[C@H](CCC(=O)[*:2])N[*:1]; αMeF = C[C@](N)(Cc1ccccc1)C(=O)O; Aib = CC(C)(N)C(=O)O

Legend:
[1] = target: T1, rat amylin receptor (calcitonin receptor co-expressed with receptor activity modifying protein, RAMP3) (Rat AMYR3) (Rattus norvegicus, UniProt P32214+Q9JJ73); assay: cAMP production in HEK cells with stable recombinant expression of rat amylin receptor (Rat AMYR3); format: cell-based; details: assay buffer with 0.1% BSA
T1 construct: expressed in transfected cells
T1 sequence (P32214 25-516): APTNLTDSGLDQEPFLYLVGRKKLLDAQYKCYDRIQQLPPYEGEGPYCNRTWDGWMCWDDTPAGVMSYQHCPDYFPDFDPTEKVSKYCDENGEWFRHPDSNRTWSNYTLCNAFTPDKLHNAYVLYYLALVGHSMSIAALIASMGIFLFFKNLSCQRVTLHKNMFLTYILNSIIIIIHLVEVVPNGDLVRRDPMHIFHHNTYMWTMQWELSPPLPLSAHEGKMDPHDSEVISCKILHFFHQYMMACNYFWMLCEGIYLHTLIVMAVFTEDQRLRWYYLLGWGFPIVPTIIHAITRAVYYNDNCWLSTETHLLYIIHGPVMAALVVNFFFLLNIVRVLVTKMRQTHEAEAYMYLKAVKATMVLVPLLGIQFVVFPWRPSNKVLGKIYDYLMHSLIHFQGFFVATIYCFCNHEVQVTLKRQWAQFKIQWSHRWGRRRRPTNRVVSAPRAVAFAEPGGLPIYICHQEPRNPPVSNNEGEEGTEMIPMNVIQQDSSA
T1 sequence (Q9JJ73 23-147 partner): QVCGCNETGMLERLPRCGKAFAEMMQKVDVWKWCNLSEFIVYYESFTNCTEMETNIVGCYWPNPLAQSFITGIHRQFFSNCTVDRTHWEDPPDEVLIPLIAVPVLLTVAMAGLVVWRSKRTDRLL
Summary of the method: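 Thawed cells in HBSS/0.1% BSA/25 mM HEPES pH 7.4 with 0.5 mM IBMX were incubated with peptides 30 min at room temperature; cAMP read by HTRF. EC50 from 4-parameter fit of % activation relative to maximal amylin or calcitonin effect.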

lean rats = assay: Rat acute food intake study; format: in vivo; details: lean male Sprague Dawley rats, 20 nmol/kg subcutaneously
Summary of the method: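 Male Sprague Dawley rats (n=7/group), fasted 6 h, received 20 nmol/kg test compound or 60 nmol/kg pramlintide subcutaneously 30 min before food return at dark onset. Food intake recorded automatically in home cages over 3 days, binned hourly and analysed as cumulative dark-period intake; body weight taken daily.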

[2] = Pharmacokinetic determination via IV and SC administration in Sprague Dawley rats; details: male, rat, plasma, 20 nmol/kg

SMILES	EC50 [1] [pM]	Cummulative food intake (% vehicle treated intake) At 12 h (lean rats) [% vehicle treated intake]	Cummulative food intake (% vehicle treated intake) At 24 h (lean rats) [% vehicle treated intake]	Cummulative food intake (% vehicle treated intake) At 48 h (lean rats) [% vehicle treated intake]	half-life ([2]; iv) [h]	half-life ([2]; sc) [h]
CC[C@H](C)[C@H](NC(=O)[C@@H]1CCCN1C(=O)CNC(=O)[C@H](Cc1ccccc1)NC(=O)[C@H](CC(N)=O)NC(=O)[C@H](CC(N)=O)NC(=O)[C@H](CO)NC(=O)[C@H](CO)NC(=O)[C@H](Cc1c[nH]cn1)NC(=O)C(C)(C)NC(=O)[C@H](CC(C)C)NC(=O)[C@H](Cc1ccccc1)NC(=O)[C@H](CC(N)=O)NC(=O)[C@H](C)NC(=O)[C@H](CC(C)C)NC(=O)[C@H](CCCNC(=N)N)NC(=O)[C@H](CCC(N)=O)NC(=O)[C@@H](NC(=O)[C@H](C)NC(=O)[C@@H]1CSSC[C@H](NC(=O)[C@H](CCCCN)NC(=O)[C@@H](N)CCCCNC(=O)CC[C@H](NC(=O)CCCCCCCCCCCCCCCCC(=O)O)C(=O)O)C(=O)N[C@@H](CC(N)=O)C(=O)N[C@@H]([C@@H](C)O)C(=O)N[C@@H](C)C(=O)N[C@@H]([C@@H](C)O)C(=O)N1)[C@@H](C)O)C(=O)N[C@@H](CC(C)C)C(=O)N1CCC[C@H]1C(=O)N1CCC[C@H]1C(=O)N[C@H](C(=O)N[C@@H](CC(N)=O)C(=O)N[C@H](C(=O)NCC(=O)N[C@@H](CO)C(=O)N[C@@H](CC(N)=O)C(=O)N[C@H](C(=O)N[C@@H](Cc1ccc(O)cc1)C(N)=O)[C@@H](C)O)C(C)C)[C@@H](C)O [Peptide 129] (H-K([γGlu-C18 diacid])KCNTATCATQRLANFL[Aib]HSSNNFGPILPPTNVGSNTY-NH2; disulfide 3-8; N-terminus assumed)	11.2	29	32.4	51	10.3	9
CC[C@H](C)[C@H](NC(=O)[C@@H]1CCCN1C(=O)CNC(=O)[C@](C)(Cc1ccccc1)NC(=O)[C@H](CC(N)=O)NC(=O)[C@H](CC(N)=O)NC(=O)[C@H](CO)NC(=O)[C@H](CO)NC(=O)[C@H](Cc1c[nH]cn1)NC(=O)[C@H](CCCNC(=N)N)NC(=O)[C@H](CC(C)C)NC(=O)[C@H](Cc1ccccc1)NC(=O)[C@H](CC(N)=O)NC(=O)[C@H](C)NC(=O)[C@H](CC(C)C)NC(=O)[C@H](CCCNC(=N)N)NC(=O)[C@H](CCC(N)=O)NC(=O)[C@@H](NC(=O)[C@H](C)NC(=O)[C@@H]1CSSC[C@H](NC(=O)[C@@H](N)CCCCNC(=O)CC[C@H](NC(=O)CC[C@H](NC(=O)CCCCCCCCCCCCCCCCC(=O)O)C(=O)O)C(=O)O)C(=O)N[C@@H](CC(N)=O)C(=O)N[C@@H]([C@@H](C)O)C(=O)N[C@@H](C)C(=O)N[C@@H]([C@@H](C)O)C(=O)N1)[C@@H](C)O)C(=O)N[C@@H](CC(C)C)C(=O)N1CCC[C@H]1C(=O)N1CCC[C@H]1C(=O)N[C@H](C(=O)N[C@@H](CC(N)=O)C(=O)N[C@H](C(=O)NCC(=O)N[C@@H](CO)C(=O)N[C@@H](CC(N)=O)C(=O)N[C@H](C(=O)N[C@@H](Cc1ccc(O)cc1)C(N)=O)[C@@H](C)O)C(C)C)[C@@H](C)O [Peptide 20, K(γE-γE-C18diacid)[CNTATC]ATQRLANFLRHSSNN(αMePhe)GPILPPTNVGSNTY-amide] (H-K([γGlu-γGlu-C18 diacid])CNTATCATQRLANFLRHSSNN[αMeF]GPILPPTNVGSNTY-NH2; disulfide 2-7; N-terminus assumed)	10.4	27	26.2	49.7	10	10.8
